# Active and inactive are the calls of the source. The rule behind the calls is not given here.
# Assays:
# NUGC-3 [1] = assay: Growth of human NUGC3 cells at 0.1 uM after 48 hrs by SRB assay; settings: NUGC-3, 48 h
# ACHN [2] = assay: Growth of human ACHN cells at 0.1 uM after 48 hrs by SRB assay
# NCI-H23 [3] = assay: Growth inhibition of human NCI-H23 cells at 3 uM after 48 hrs by SRB assay; values are per cent of control; settings: NCI-H23, 48 h
# ACHN [4] = assay: Growth inhibition of human ACHN cells at 3 uM after 48 hrs by SRB assay; values are per cent of control
# NCI-H23 [5] = assay: Growth of human NCI-H23 cells at 10 uM after 48 hrs by SRB assay; settings: NCI-H23, 48 h
# MDA-MB-231 [6] = assay: Growth of human MDA-MB-231 cells at 10 uM after 48 hrs by SRB assay; settings: MDA-MB-231, 48 h
# PC-3 [7] = assay: Growth inhibition of human PC3 cells at 1 uM after 48 hrs by SRB assay; values are per cent of control; settings: PC-3, 48 h
# [8] = molecular target: Rho-related GTP-binding protein RhoB (Homo sapiens) (UniProt P62745); assay: Transactivation of RhoB (unknown origin) transfected in human HeLa cells at 5 uM measured over 10 secs by dual luciferase reporter gene assay; format: cell-based
# HCT-15 [9] = assay: Growth inhibition of human HCT15 cells at 0.1 uM after 48 hrs by SRB assay; values are per cent of control; settings: HCT-15, 48 h
# NCI-H23 [10] = assay: Growth inhibition of human NCI-H23 cells at 1 uM after 48 hrs by SRB assay; values are per cent of control; settings: NCI-H23, 48 h
# PC-3 [11] = assay: Growth inhibition of human PC3 cells after 48 hrs by SRB assay; format: functional; settings: PC-3, 48 h
# PC-3 [12] = assay: Growth of human PC3 cells at 10 uM after 48 hrs by SRB assay; settings: PC-3, 48 h
# PC-3 [13] = assay: Growth inhibition of human PC3 cells at 0.3 uM after 48 hrs by SRB assay; values are per cent of control; settings: PC-3, 48 h
# HCT-15 [14] = assay: Growth of human HCT15 cells at 3 uM after 48 hrs by SRB assay; settings: HCT-15, 48 h
# ACHN [15] = assay: Growth inhibition of human ACHN cells after 48 hrs by SRB assay; format: functional
# ACHN [16] = assay: Growth of human ACHN cells at 0.3 uM after 48 hrs by SRB assay
# MDA-MB-231 [17] = assay: Growth inhibition of human MDA-MB-231 cells at 0.3 uM after 48 hrs by SRB assay; values are per cent of control; settings: MDA-MB-231, 48 h
# ACHN [18] = assay: Growth inhibition of human ACHN cells at 1 uM after 48 hrs by SRB assay; values are per cent of control
# ACHN [19] = assay: Growth of human ACHN cells at 10 uM after 48 hrs by SRB assay
# MDA-MB-231 [20] = assay: Growth of human MDA-MB-231 cells at 0.1 uM after 48 hrs by SRB assay; settings: MDA-MB-231, 48 h
# PC-3 [21] = assay: Growth inhibition of human PC3 cells at 0.1 uM after 48 hrs by SRB assay; values are per cent of control; settings: PC-3, 48 h
# NUGC-3 [22] = assay: Growth inhibition of human NUGC3 cells at 10 uM after 48 hrs by SRB assay; values are per cent of control; settings: NUGC-3, 48 h
# NUGC-3 [23] = assay: Growth inhibition of human NUGC3 cells after 48 hrs by SRB assay; format: functional; settings: NUGC-3, 48 h
# NCI-H23 [24] = assay: Growth inhibition of human NCI-H23 cells after 48 hrs by SRB assay; format: functional; settings: NCI-H23, 48 h
# HCT-15 [25] = assay: Growth inhibition of human HCT15 cells at 10 uM after 48 hrs by SRB assay; values are per cent of control; settings: HCT-15, 48 h
# HCT-15 [26] = assay: Growth inhibition of human HCT15 cells after 48 hrs by SRB assay; format: functional; settings: HCT-15, 48 h
# HCT-15 [27] = assay: Growth of human HCT15 cells at 0.3 uM after 48 hrs by SRB assay; settings: HCT-15, 48 h
# NUGC-3 [28] = assay: Growth of human NUGC3 cells at 1 uM after 48 hrs by SRB assay; settings: NUGC-3, 48 h
# PC-3 [29] = assay: Growth inhibition of human PC3 cells at 3 uM after 48 hrs by SRB assay; values are per cent of control; settings: PC-3, 48 h
# MDA-MB-231 [30] = assay: Growth of human MDA-MB-231 cells at 3 uM after 48 hrs by SRB assay; values are per cent of control; settings: MDA-MB-231, 48 h
# HCT-15 [31] = assay: Growth inhibition of human HCT15 cells at 1 uM after 48 hrs by SRB assay; values are per cent of control; settings: HCT-15, 48 h
# NUGC-3 [32] = assay: Growth inhibition of human NUGC3 cells at 3 uM after 48 hrs by SRB assay; values are per cent of control; settings: NUGC-3, 48 h
# MDA-MB-231 [33] = assay: Growth inhibition of human MDA-MB-231 cells after 48 hrs by SRB assay; format: functional; settings: MDA-MB-231, 48 h
# MDA-MB-231 [34] = assay: Growth of human MDA-MB-231 cells at 1 uM after 48 hrs by SRB assay; settings: MDA-MB-231, 48 h
# NCI-H23 [35] = assay: Growth of human NCI-H23 cells at 0.3 uM after 48 hrs by SRB assay; settings: NCI-H23, 48 h
# NUGC-3 [36] = assay: Growth of human NUGC3 cells at 0.3 uM after 48 hrs by SRB assay; settings: NUGC-3, 48 h
# NCI-H23 [37] = assay: Growth inhibition of human NCI-H23 cells at 0.1 uM after 48 hrs by SRB assay; values are per cent of control; settings: NCI-H23, 48 h
# Sequence of Rho-related GTP-binding protein RhoB (Homo sapiens) (P62745 whole entry): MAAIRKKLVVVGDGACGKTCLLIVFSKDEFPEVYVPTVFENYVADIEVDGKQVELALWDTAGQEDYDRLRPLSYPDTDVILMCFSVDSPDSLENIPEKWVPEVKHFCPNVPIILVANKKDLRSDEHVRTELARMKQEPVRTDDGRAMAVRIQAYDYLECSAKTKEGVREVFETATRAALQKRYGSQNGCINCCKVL
SMILES,"growth, % of control at 0.1 µM (NUGC-3 [1])","growth, % of control at 0.1 µM (ACHN [2])","growth, % of control at 3 µM (NCI-H23 [3])","growth, % of control at 3 µM (ACHN [4])","growth, % of control at 10 µM (NCI-H23 [5])","growth, % of control at 10 µM (MDA-MB-231 [6])","growth, % of control at 1 µM (PC-3 [7])",Activity [8],"growth, % of control at 0.1 µM (HCT-15 [9])","growth, % of control at 1 µM (NCI-H23 [10])",GI50 (PC-3 [11]),"growth, % of control at 10 µM (PC-3 [12])","growth, % of control at 0.3 µM (PC-3 [13])","growth, % of control at 3 µM (HCT-15 [14])",GI50 (ACHN [15]),"growth, % of control at 0.3 µM (ACHN [16])","growth, % of control at 0.3 µM (MDA-MB-231 [17])","growth, % of control at 1 µM (ACHN [18])","growth, % of control at 10 µM (ACHN [19])","growth, % of control at 0.1 µM (MDA-MB-231 [20])",also measured
C=CC[N+](C)(C)CCN(C)S(=O)(=O)CCCCCCCCCCCCCC,91.6%,92.6%,24%,45.7%,-9.2%,20.2%,48.6%,Active,90.5%,70.8%,460 nM,-22.9%,83%,49.9%,1390 nM,101%,107%,80.3%,-36.7%,88%,"growth, % of control at 0.1 µM (PC-3 [21]): 86.7%; growth, % of control at 10 µM (NUGC-3 [22]): -8.4%; GI50 (NUGC-3 [23]): 830 nM; GI50 (NCI-H23 [24]): 730 nM; growth, % of control at 10 µM (HCT-15 [25]): 22.6%; GI50 (HCT-15 [26]): 1710 nM; growth, % of control at 0.3 µM (HCT-15 [27]): 91.6%; growth, % of control at 1 µM (NUGC-3 [28]): 73%; growth, % of control at 3 µM (PC-3 [29]): 8.4%; growth, % of control at 3 µM (MDA-MB-231 [30]): 49.7%; growth, % of control at 1 µM (HCT-15 [31]): 81.8%; growth, % of control at 3 µM (NUGC-3 [32]): 19.3%; GI50 (MDA-MB-231 [33]): 1800 nM; growth, % of control at 1 µM (MDA-MB-231 [34]): 99.4%; growth, % of control at 0.3 µM (NCI-H23 [35]): 80.4%; growth, % of control at 0.3 µM (NUGC-3 [36]): 97.1%; growth, % of control at 0.1 µM (NCI-H23 [37]): 78.2%"
C=CC[N+](C)(C)CCN(C)S(=O)(=O)CCCCCCCCCCCCCCCC,108%,135%,30.9%,69.3%,2.5%,18.4%,61.8%,Active,100%,69.8%,620 nM,-4.8%,95.9%,76.5%,3480 nM,130%,104%,112%,38.6%,108%,"growth, % of control at 0.1 µM (PC-3 [21]): 99.9%; growth, % of control at 10 µM (NUGC-3 [22]): 9.4%; GI50 (NUGC-3 [23]): 760 nM; GI50 (NCI-H23 [24]): 890 nM; growth, % of control at 10 µM (HCT-15 [25]): 48.7%; GI50 (HCT-15 [26]): 4730 nM; growth, % of control at 0.3 µM (HCT-15 [27]): 101%; growth, % of control at 1 µM (NUGC-3 [28]): 65.5%; growth, % of control at 3 µM (PC-3 [29]): 10.1%; growth, % of control at 3 µM (MDA-MB-231 [30]): 39.4%; growth, % of control at 1 µM (HCT-15 [31]): 97.2%; growth, % of control at 3 µM (NUGC-3 [32]): 20.9%; GI50 (MDA-MB-231 [33]): 1350 nM; growth, % of control at 1 µM (MDA-MB-231 [34]): 86.5%; growth, % of control at 0.3 µM (NCI-H23 [35]): 96.2%; growth, % of control at 0.3 µM (NUGC-3 [36]): 105%; growth, % of control at 0.1 µM (NCI-H23 [37]): 101%"
CCCCCCCCCCCCCCS(=O)(=O)NCCC[N+](C)(C)CC,85.1%,91.4%,-10.6%,42.5%,-45.5%,23.9%,33.4%,Active,97%,24%,300 nM,-11.5%,72.7%,36.9%,1640 nM,91.4%,86.4%,92.5%,24.5%,83.1%,"growth, % of control at 0.1 µM (PC-3 [21]): 89.8%; growth, % of control at 10 µM (NUGC-3 [22]): -4.7%; GI50 (NUGC-3 [23]): 290 nM; GI50 (NCI-H23 [24]): 330 nM; growth, % of control at 10 µM (HCT-15 [25]): 23.4%; GI50 (HCT-15 [26]): 1140 nM; growth, % of control at 0.3 µM (HCT-15 [27]): 94.5%; growth, % of control at 1 µM (NUGC-3 [28]): 34%; growth, % of control at 3 µM (PC-3 [29]): 6.9%; growth, % of control at 3 µM (MDA-MB-231 [30]): 43.8%; growth, % of control at 1 µM (HCT-15 [31]): 68.2%; growth, % of control at 3 µM (NUGC-3 [32]): 11.2%; GI50 (MDA-MB-231 [33]): 1170 nM; growth, % of control at 1 µM (MDA-MB-231 [34]): 66.2%; growth, % of control at 0.3 µM (NCI-H23 [35]): 88.7%; growth, % of control at 0.3 µM (NUGC-3 [36]): 69%; growth, % of control at 0.1 µM (NCI-H23 [37]): 93.3%"

# From ChEMBL document CHEMBL2434921, “New synthetic aliphatic sulfonamido-quaternary ammonium salts as anticancer chemotherapeutic agents” (2013)
